Reference: patent US11987586B1 (TAKEDA PHARMACEUTICAL COMPANY LIMITED, priority 2022, dated 2024)

Biological target: T1, human OX2 receptor (Homo sapiens, UniProt O43614)
T1 construct: expressed in transfected cells
T1 sequence (O43614 1-444): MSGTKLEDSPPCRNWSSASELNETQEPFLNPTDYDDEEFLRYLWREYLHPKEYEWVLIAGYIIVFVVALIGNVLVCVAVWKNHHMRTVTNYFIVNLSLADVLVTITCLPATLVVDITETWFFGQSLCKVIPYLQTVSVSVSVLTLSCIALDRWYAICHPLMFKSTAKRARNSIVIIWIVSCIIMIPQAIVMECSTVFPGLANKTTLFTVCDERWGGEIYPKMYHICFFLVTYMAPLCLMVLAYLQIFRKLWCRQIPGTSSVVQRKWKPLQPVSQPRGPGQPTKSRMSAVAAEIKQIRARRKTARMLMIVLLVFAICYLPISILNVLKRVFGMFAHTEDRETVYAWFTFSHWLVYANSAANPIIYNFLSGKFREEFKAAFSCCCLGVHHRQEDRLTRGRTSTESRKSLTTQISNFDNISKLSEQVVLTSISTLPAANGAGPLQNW
Assay: Measurement of orexin type 2 receptor agonist activity (calcium fluorescence, Fluo-4, FDSS)
Assay type: cell-based
Settings: 3 uM test compound; CHO cells expressing human OX2 receptor; DMSO = 0%, 10 nM orexin A (human) = 100%
Method in brief: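 Agonist activity (%) was normalised to the response to 10 nM final human orexin A (100%) and to the DMSO vehicle (0%). The response was measured as the Fluo-4 calcium signal, read kinetically over 1 min 40 s after compound addition to Fluo-4/probenecid-loaded stable CHO-K1 clones expressing human OX2 (aa 1-444).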

OX2R agonist activity (3 uM, %)	SMILES
99%	CS(=O)(=O)N[C@@H]1Cn2c(cn(-c3noc4ccc(F)c(-c5c(F)cccc5F)c34)c2=O)C1(F)F [Example 75, N-{(6R)-2-[4-(2,6-Difluorophenyl)-5-fluoro-1,2-benzoxazol-3-yl]-7,7-difluoro-3-oxo-2,5,6,7-tetrahydro-3H-pyrrolo[1,2-c]imidazol-6-yl}methanesulfonamide]
105%	CCS(=O)(=O)N[C@@H]1Cn2c(cn(-c3noc4ccc(F)c(-c5c(F)cccc5F)c34)c2=O)C1(F)F [Example 76, N-{(6R)-2-[4-(2,6-difluorophenyl)-5-fluoro-1,2-benzoxazol-3-yl]-7,7-difluoro-3-oxo-2,5,6,7-tetrahydro-3H-pyrrolo[1,2-c]imidazol-6-yl}ethanesulfonamide]
104%	CCS(=O)(=O)N[C@@H]1Cn2c(cn(-c3noc4cc(Cl)c(F)c(-c5c(F)cccc5F)c34)c2=O)C1(F)F [Example 78, N-{(6R)-2-[6-chloro-4-(2,6-difluorophenyl)-5-fluoro-1,2-benzoxazol-3-yl]-7,7-difluoro-3-oxo-2,5,6,7-tetrahydro-3H-pyrrolo[1,2-c]imidazol-6-yl}ethanesulfonamide]
99%	CCS(=O)(=O)N[C@@H]1CN2C(=O)N(c3noc4cc(Cl)c(F)c(-c5c(F)cccc5F)c34)C[C@@H]2C1(F)F [Example 79, N-{(6R,7aR)-2-[6-chloro-4-(2,6-difluorophenyl)-5-fluoro-1,2-benzoxazol-3-yl]-7,7-difluoro-3-oxohexahydro-1H-pyrrolo[1,2-c]imidazol-6-yl}ethanesulfonamide]
84%	CCS(=O)(=O)N[C@H]1C[C@H]2CN(c3noc4cccc(-c5sccc5C)c34)C(=O)N2C1 [Example 83, N-{(6S,7aS)-2-[4-(3-methylthiophen-2-yl)-1,2-benzoxazol-3-yl]-3-oxohexahydro-1H-pyrrolo[1,2-c]imidazol-6-yl}ethanesulfonamide]
92%	CCS(=O)(=O)N[C@H]1Cc2cn(-c3noc4cc(C(F)(F)F)cc(-c5c(F)cccc5F)c34)c(=O)n2C1 [Example 84, N-{(6S)-2-[4-(2,6-difluorophenyl)-6-(trifluoromethyl)-1,2-benzoxazol-3-yl]-3-oxo-2,5,6,7-tetrahydro-3H-pyrrolo[1,2-c]imidazol-6-yl}ethanesulfonamide]
95%	CCS(=O)(=O)N[C@H]1Cc2cn(-c3c(C)nn4cccc(-c5c(F)cccc5F)c34)c(=O)n2C1 [Example 85, N-{(6S)-2-[4-(2,6-difluorophenyl)-2-methylpyrazolo[1,5-a]pyridin-3-yl]-3-oxo-2,5,6,7-tetrahydro-3H-pyrrolo[1,2-c]imidazol-6-yl}ethanesulfonamide]
103%	CCS(=O)(=O)N[C@H]1Cc2c(C)n(-c3noc4cc(C(F)(F)F)cc(-c5c(F)cccc5F)c34)c(=O)n2C1 [Example 86, N-{(6S)-2-[4-(2,6-difluorophenyl)-6-(trifluoromethyl)-1,2-benzoxazol-3-yl]-1-methyl-3-oxo-2,5,6,7-tetrahydro-3H-pyrrolo[1,2-c]imidazol-6-yl}ethanesulfonamide]
91%	CS(=O)(=O)N[C@@H]1CN2C(=O)N(c3noc4cc(Cl)cc(-c5c(F)cccc5F)c34)C[C@@H]2C1(F)F [Example 87, N-{(6R,7aR)-2-[6-chloro-4-(2,6-difluorophenyl)-1,2-benzoxazol-3-yl]-7,7-difluoro-3-oxohexahydro-1H-pyrrolo[1,2-c]imidazol-6-yl}methanesulfonamide]
79%	Cn1nc2cccc(-c3c(F)cccc3F)c2c1-n1cc2n(c1=O)C[C@@H](NS(C)(=O)=O)C2 [Example 88, N-{(6S)-2-[4-(2,6-difluorophenyl)-2-methyl-2H-indazol-3-yl]-3-oxo-2,5,6,7-tetrahydro-3H-pyrrolo[1,2-c]imidazol-6-yl}methanesulfonamide]
95%	O=C1N(c2noc3cccc(-c4c(F)cccc4F)c23)C[C@H]2N1C[C@@H](NS(=O)(=O)C1CC1)C2(F)F [Example 89, N-{(6R,7aR)-2-[4-(2,6-difluorophenyl)-1,2-benzoxazol-3-yl]-7,7-difluoro-3-oxohexahydro-1H-pyrrolo[1,2-c]imidazol-6-yl}cyclopropanesulfonamide]
107%	CS(=O)(=O)N[C@@H]1Cn2c(cn(-c3noc4cc(Cl)cc(-c5c(F)cc(F)cc5F)c34)c2=O)C1(F)F [Example 90, N-{(6R)-2-[6-chloro-4-(2,4,6-trifluorophenyl)-1,2-benzoxazol-3-yl]-7,7-difluoro-3-oxo-2,5,6,7-tetrahydro-3H-pyrrolo[1,2-c]imidazol-6-yl}methanesulfonamide]
103%	CCS(=O)(=O)N[C@@H]1Cn2c(cn(-c3noc4cccc(-c5c(F)cc(F)cc5F)c34)c2=O)C1(F)F [Example 91, N-{(6R)-7,7-difluoro-3-oxo-2-[4-(2,4,6-trifluorophenyl)-1,2-benzoxazol-3-yl]-2,5,6,7-tetrahydro-3H-pyrrolo[1,2-c]imidazol-6-yl}ethanesulfonamide]
98%	CCS(=O)(=O)N[C@@H]1Cn2c(cn(-c3noc4ccc(F)c(-c5c(F)cc(F)cc5F)c34)c2=O)C1(F)F [Example 92, N-{(6R)-7,7-Difluoro-2-[5-fluoro-4-(2,4,6-trifluorophenyl)-1,2-benzoxazol-3-yl]-3-oxo-2,5,6,7-tetrahydro-3H-pyrrolo[1,2-c]imidazol-6-yl}ethanesulfonamide]
99%	CCS(=O)(=O)N[C@@H]1CN2C(=O)N(c3noc4cc(Cl)c(F)c(-c5c(F)cc(F)cc5F)c34)C[C@@H]2C1(F)F [Example 93, N-{(6R,7aR)-2-[6-chloro-5-fluoro-4-(2,4,6-trifluorophenyl)-1,2-benzoxazol-3-yl]-7,7-difluoro-3-oxohexahydro-1H-pyrrolo[1,2-c]imidazol-6-yl}ethanesulfonamide]
106%	CCS(=O)(=O)N[C@@H]1Cn2c(cn(-c3noc4cc(Cl)c(F)c(-c5c(F)cc(F)cc5F)c34)c2=O)C1(F)F [Example 94, N-{(6R)-2-[6-chloro-5-fluoro-4-(2,4,6-trifluorophenyl)-1,2-benzoxazol-3-yl]-7,7-difluoro-3-oxo-2,5,6,7-tetrahydro-3H-pyrrolo[1,2-c]imidazol-6-yl}ethanesulfonamide]
104%	CS(=O)(=O)N[C@@H]1Cn2c(cn(-c3noc4cc(Cl)c(F)c(-c5c(F)cccc5F)c34)c2=O)C1(F)F [Example 95, N-{(6R)-2-[6-chloro-4-(2,6-difluorophenyl)-5-fluoro-1,2-benzoxazol-3-yl]-7,7-difluoro-3-oxo-2,5,6,7-tetrahydro-3H-pyrrolo[1,2-c]imidazol-6-yl}methanesulfonamide]
100%	CS(=O)(=O)N[C@@H]1Cn2c(cn(-c3noc4cccc(-c5c(F)cccc5F)c34)c2=O)C1(F)F [Example 102, N-{(6R)-2-[4-(2,6-Difluorophenyl)-1,2-benzoxazol-3-yl]-7,7-difluoro-3-oxo-2,5,6,7-tetrahydro-3H-pyrrolo[1,2-c]imidazol-6-yl}methanesulfonamide]
106%	Cn1nc(-n2cc3n(c2=O)C[C@@H](NS(C)(=O)=O)C3)c2c(-c3c(F)cccc3F)cccc21 [Example 103, N-{(6S)-2-[4-(2,6-difluorophenyl)-1-methyl-1H-indazol-3-yl]-3-oxo-2,5,6,7-tetrahydro-3H-pyrrolo[1,2-c]imidazol-6-yl}methanesulfonamide]
96%	CCS(=O)(=O)N[C@@H]1CN2C(=O)N(c3noc4ccc(F)c(-c5c(F)cc(F)cc5F)c34)C[C@@H]2C1(F)F [Example 105, N-{(6R,7aR)-7,7-difluoro-2-[5-fluoro-4-(2,4,6-trifluorophenyl)-1,2-benzoxazol-3-yl]-3-oxohexahydro-1H-pyrrolo[1,2-c]imidazol-6-yl}ethanesulfonamide]
103%	CS(=O)(=O)N[C@@H]1Cn2c(cn(-c3noc4cc(Cl)c(F)c(-c5c(F)cc(F)cc5F)c34)c2=O)C1(F)F [Example 106, N-{(6R)-2-[6-chloro-5-fluoro-4-(2,4,6-trifluorophenyl)-1,2-benzoxazol-3-yl]-7,7-difluoro-3-oxo-2,5,6,7-tetrahydro-3H-pyrrolo[1,2-c]imidazol-6-yl}methanesulfonamide]
101%	CS(=O)(=O)N[C@@H]1CN2C(=O)N(c3noc4cc(Cl)c(F)c(-c5c(F)cccc5F)c34)C[C@@H]2C1(F)F [Example 107, N-{(6R,7aR)-2-[6-chloro-4-(2,6-difluorophenyl)-5-fluoro-1,2-benzoxazol-3-yl]-7,7-difluoro-3-oxohexahydro-1H-pyrrolo[1,2-c]imidazol-6-yl}methanesulfonamide]
109%	CS(=O)(=O)N[C@@H]1Cn2c(cn(-c3noc4cc(F)cc(-c5c(F)cc(F)cc5F)c34)c2=O)C1(F)F [Example 108, N-{(6R)-7,7-difluoro-2-[6-fluoro-4-(2,4,6-trifluorophenyl)-1,2-benzoxazol-3-yl]-3-oxo-2,5,6,7-tetrahydro-3H-pyrrolo[1,2-c]imidazol-6-yl}methanesulfonamide]
